Test results published in PMC8119466, “A screen of FDA-approved drugs identifies inhibitors of protein tyrosine phosphatase 4A3 (PTP4A3 or PRL-3)” (Scientific Reports, 2021).
Where a name gives a salt, the structure may show the parent alone. Read-outs that look alike come from different tables or passages of the source.

Columns and labels:
Format in all cases: biochemical
[1] = molecular target: T1, recombinant PRL-1 (Homo sapiens, UniProt Q93096); assay: In vitro phosphatase assay (DiFMUP hydrolysis), PRL-1; further: test concentration or dose not given here
T1 construct: 6xHis (N, cleaved yes); made in house; host or cells: E. coli One Shot BL21 Star
T1 sequence (Q93096 1-173): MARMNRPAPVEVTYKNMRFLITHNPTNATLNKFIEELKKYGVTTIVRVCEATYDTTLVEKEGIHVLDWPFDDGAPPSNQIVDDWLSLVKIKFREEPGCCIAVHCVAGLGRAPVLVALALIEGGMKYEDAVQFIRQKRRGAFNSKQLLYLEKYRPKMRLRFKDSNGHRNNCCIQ

[2] = molecular target: T2, recombinant PRL-2 (Homo sapiens, UniProt Q12974); assay: In vitro phosphatase assay (DiFMUP hydrolysis), PRL-2;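 further: PRL-2 activity read as DiFMUP hydrolysis after 20 min at room temperature with drug, enzyme first pre-reduced at 4 °C for 20 min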
T2 construct: 6xHis (N, cleaved yes); made in house; host or cells: E. coli One Shot BL21 Star
T2 sequence (Q12974 1-167): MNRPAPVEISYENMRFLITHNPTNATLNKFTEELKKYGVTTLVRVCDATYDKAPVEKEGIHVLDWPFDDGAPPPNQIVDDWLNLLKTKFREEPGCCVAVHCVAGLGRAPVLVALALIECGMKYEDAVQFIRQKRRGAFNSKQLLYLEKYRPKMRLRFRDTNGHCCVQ

[3] = molecular target: T3, recombinant PRL-3 (Homo sapiens, UniProt O75365); assay: In vitro phosphatase assay (DiFMUP hydrolysis), PRL-3; further: test concentration or dose not given here
T3 construct: 6xHis (N, cleaved yes); made in house; host or cells: E. coli One Shot BL21 Star

[4] = FDA-approved drug screen, compared to DMSO
[5] = FDA-approved drug screen, activity compared to DMSO

T3 sequence (O75365 whole entry): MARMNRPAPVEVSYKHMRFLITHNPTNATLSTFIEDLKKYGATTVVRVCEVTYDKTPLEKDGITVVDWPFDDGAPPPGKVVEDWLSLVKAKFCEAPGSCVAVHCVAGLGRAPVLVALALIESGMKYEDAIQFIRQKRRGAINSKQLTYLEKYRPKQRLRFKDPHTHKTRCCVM

| Compound | % Phosphatase Activity (compared to DMSO) PRL-1 [1, 4] [%] | % Phosphatase Activity (compared to DMSO) PRL-2 [2, 4] [%] | % Phosphatase Activity (compared to DMSO) PRL-3 [3, 4] [%] | further results |
| --- | --- | --- | --- | --- |
| C[C@]12C=CC(=O)C=C1CC[C@@H]1[C@@H]2[C@@H](O)C[C@@]2(C)[C@H]1CC[C@]2(O)C(=O)CO [Prednisolone] | 89 | 99 | 103 | – |
| CCOC(=O)c1ccc(N)cc1 [Benzocaine] | 87 | 98 | 84 | – |
| CCC[C@@H]1C[C@@H](C(=O)N[C@@H]([C@H]2O[C@H](SC)[C@H](OP(=O)(O)O)[C@@H](O)[C@H]2O)[C@H](C)Cl)N(C)C1 [Clindamycin Phosphate] | 93 | 76 | 88 | – |
| O=C(O)CCC(=O)c1ccc(-c2ccccc2)cc1 [Fenbufen] | 98 | 103 | 90 | – |
| Nc1ccc2cc3ccc(N)cc3nc2c1 [Proflavine Hemisulfate] | 81 | 61 | 100 | – |
| O=c1c(-c2ccc(O)cc2)coc2cc(O)cc(O)c12 [Genistein] | 95 | 100 | 64 | – |
| CNC(=O)c1cc(Oc2ccc(NC(=O)Nc3ccc(Cl)c(C(F)(F)F)c3)c(F)c2)ccn1 [Regorafenib (BAY 73-4506)] | 86 | 88 | 79 | – |
| COc1cc(C(C)=O)ccc1OCCCN1CCC(c2noc3cc(F)ccc23)CC1 [Iloperidone] | 105 | 88 | 80 | – |
| Cc1ccc(O)c([C@H](CCN(C(C)C)C(C)C)c2ccccc2)c1 [Tolterodine tartrate] | – | – | – | % Phosphatase Activity (compared to DMSO) PRL-1 [1, 5]: 98%; % Phosphatase Activity (compared to DMSO) PRL-2 [2, 5]: 110%; % Phosphatase Activity (compared to DMSO) PRL-3 [3, 5]: 93% |
| COc1cc(C(=O)O)ccc1NC(=O)[C@@H]1N[C@@H](CC(C)(C)C)[C@](C#N)(c2ccc(Cl)cc2F)[C@H]1c1cccc(Cl)c1F [Idasanutlin (RG-7388)] | 7 | 15 | 2 | – |
| OCc1ccccc1 [Benzyl alcohol] | 94 | 91 | 82 | – |
| Cl.Fc1ccc([C@@H]2CCNC[C@H]2COc2ccc3c(c2)OCO3)cc1 [Paroxetine HCl] | 90 | 128 | 95 | – |
| CCN(CC)CCOCCOC(=O)C(CC)(CC)c1ccccc1.O=C(O)CC(O)(CC(=O)O)C(=O)O [Oxeladin Citrate] | 90 | 88 | 89 | – |
| Nc1ncn([C@H]2C[C@H](O)[C@@H](CO)O2)c(=O)n1 [Decitabine] | 114 | 93 | 81 | – |
| COc1c(N2CCNC(C)C2)c(F)cc2c(=O)c(C(=O)O)cn(C3CC3)c12 (stereo not drawn) [Gatifloxacin] | 146 | 187 | 122 | – |
| Cc1ccc(S(=O)(=O)NC(=O)NN2CC3CCCC3C2)cc1 (stereo not drawn) [Gliclazide] | 112 | 138 | 94 | – |
| CC(=O)c1c(C)c2cnc(Nc3ccc(N4CCNCC4)cn3)nc2n(C2CCCC2)c1=O.O=S(=O)(O)CCO [Palbociclib (PD0332991) Isethionate] | 75 | 61 | 100 | – |
| CC(=O)OCC(=O)[C@@]1(O)CC[C@H]2[C@@H]3CCC4=CC(=O)C=C[C@]4(C)[C@H]3[C@@H](O)C[C@@]21C [Prednisolone Acetate] | 105 | 102 | 80 | – |
| CCOc1nc2cccc(C(=O)O)c2n1Cc1ccc(-c2ccccc2-c2nc(=O)o[nH]2)cc1 [Azilsartan] | 111 | 130 | 101 | – |
| Cc1ccccc1N1C(=O)c2cc(S(N)(=O)=O)c(Cl)cc2NC1C (stereo not drawn) [Metolazone] | 144 | 163 | 121 | – |
| CC(C)(C)c1cc(C(C)(C)C)c(NC(=O)c2c[nH]c3ccccc3c2=O)cc1O [Ivacaftor (VX-770)] | 95 | 87 | 77 | – |
| O=C([O-])c1ccccc1O.[Na+] [Sodium salicylate] | – | – | – | % Phosphatase Activity (compared to DMSO) PRL-1 [1]: 130%; % Phosphatase Activity (compared to DMSO) PRL-2 [2]: 103%; % Phosphatase Activity (compared to DMSO) PRL-3 [3]: 95% |
| CCCN(CCC)CCc1cccc2c1CC(=O)N2 [Ropinirole HCl] | 103 | 122 | 78 | – |
| FC(F)(F)C(Cl)Br (stereo not drawn) [Halothane] | 102 | 95 | 79 | – |
| CC(C)c1cc(-c2n[nH]c(=O)n2-c2ccc3c(ccn3C)c2)c(O)cc1O [Ganetespib (STA-9090)] | 91 | 97 | 89 | – |
| CNCCCC12CCC(c3ccccc31)c1ccccc12 [Maprotiline HCl] | – | – | – | % Phosphatase Activity (compared to DMSO) PRL-1 [1]: 127%; % Phosphatase Activity (compared to DMSO) PRL-2 [2]: 116%; % Phosphatase Activity (compared to DMSO) PRL-3 [3]: 87% |
| CCCCOC(=O)c1ccc(N)cc1 [Butamben] | 91 | 94 | 80 | – |
